Assay results from US6139864A, “Compositions for common colds” (Sudzucker Aktiengesellschaft, priority 1998, dated 2000).

Key:
[1] = Nephelometric determination of free Zn ions in the presence of polyols; format: physicochemical; conditions: 35° C., acetate buffer pH=6.0; for Percentage of free (uncomplexed) ions: of total amount, 26 mg Zn in 50 ml; for Zn ions free in solution: standardized to the same Zn ion concentration (26 mg in 50 ml)
Method: 10 ml of zinc gluconate solution (2 g of zinc gluconate and 250 ml of deionized water) are mixed with 10 ml of polyol solution (1.0 g of sugar or sugar alcohol dissolved in 25 ml of deionized water) and 2 ml of acetate buffer (pH=6.0) and thermostatted at 35° C. in a cuvette.
1 molar NaHCO3 solution is subsequently added dropwise in small amounts, and the turbidity is determined using a turbidity photometer.
Isomalt, sucrose, glucose, hard isomalt candies, the zinc gluconate which was used as a source of zinc and two commercial products are compared, the overall amount of Zn ions in each case corresponding to 26 mg in 50 ml of solution.

[2] = tested on: colds; conditions: free zinc ions; Mossad et al. 1996, Godfrey et al. 1996; cited from earlier work
[3] = tested on: rhinoviruses; conditions: Merluzzi et al. 1989; cited from earlier work
[4] = Godfrey et al. 1992; Zarembo et al. 1992; U.S. Pat. Nos. 5,409,905 and 5,002,970; cited from earlier work
[5] = Dissolution rate of sugar alcohols; format: physicochemical
[6] = tested on: Staphylococcus aureus; experiment: Growth of Staphylococcus aureus in CASO medium with added sugar alcohol, optical density OD578 versus control; format: cell-based; conditions: 16 h, read-out: growth reduced to
Method: Staphylococcus aureus was cultivated at 37° C. in CASO medium to which, in addition to the carbon source glucose (5% strength), isomalt (0.58 M) had been added. The growth of the bacteria cultures in a shaking flask was determined after 16 h by means of the optical density (OD578) and compared with a control (CASO medium without isomalt). It was observed that in all experiments the growth of the cultures which were grown in isomalt was inhibited by more than 50%.

Compound | Percentage of free (uncomplexed) ions [1] [%] | Zn ions free in solution [1] | further results
zinc gluconate [Zn gluconate] | 64 | 14.62 mg in 50 ml of solution | –
zinc ions | – | – | duration and severity of the symptoms of colds [2]: markedly reduces both the duration and the severity of the symptoms of colds; antiviral effects [3]: antiviral effects are a direct function of the amount of free Zn^2+ ions
OC[C@H]1O[C@@](CO)(O[C@H]2O[C@H](CO)[C@@H](O)[C@H](O)[C@H]2O)[C@@H](O)[C@@H]1O [Sucrose] | 48 | 12.40 mg in 50 ml of solution | –
O=C[C@H](O)[C@@H](O)[C@H](O)[C@H](O)CO [Glucose] | 50 | 13.00 mg in 50 ml of solution | –
OC[C@@H](O)[C@@H](O)[C@H](O)[C@H](O)CO [mannitol] | – | – | zinc-complexing action [4]: zinc-complexing action
OC[C@@H](O)[C@@H](O)[C@H](O)[C@H](O)CO[C@H]1O[C@H](CO)[C@@H](O)[C@H](O)[C@H]1O [1,1-GPM, 1-O-α-D-glucopyranosyl-D-mannitol] | – | – | dissolution rate compared with 1,6-GPS [5]: considerably lower dissolution rate than 1,6-GPS
OC[C@@H](O)[C@@H](O)[C@H](O)[C@@H](O)CO [sorbitol] | – | – | activity at 580000 µM [6]: ~75%; zinc-complexing action [4]: zinc-complexing action
